Tests used:
Type in all cases: in vivo
[1] = tested on: Alopecurus myosuroides (ALOMY); experiment: Pre-emergence biological efficacy, glasshouse pot test; conditions: 312 h, pre-emergence, 1,000 g/ha, evaluated after 13 days (100=total damage; 0=no damage), read-out: Percentage damage ALOMY
Procedure, shortened: (§1)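 One day after sowing in standard soil, pots were sprayed with compound in acetone/water (50:50) with 0.5% Tween 20, at 1000 or 250 g/ha. Plants grew at 24/16° C day/night, 14 h light, 65% humidity. Damage was scored after 13 days (0 = none, 100 = total).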

[2] = tested on: Amaranthus retoflexus (AMARE); experiment: as above; conditions: Amaranthus retroflexus, 312 h; pre-emergence, 1,000 g/ha, evaluated after 13 days (100=total damage; 0=no damage); read-out: Percentage damage AMARE
Procedure, shortened: as §1

[3] = tested on: Ipomea hederaceae (IPOHE); experiment: as above; conditions: Ipomoea hederacea, 312 h; pre-emergence, 1,000 g/ha, evaluated after 13 days (100=total damage; 0=no damage); read-out: Percentage damage IPOHE
Procedure, shortened: as §1

[4] = tested on: Echinochloa crus-galli (ECHCG); experiment: as above; conditions: 312 h, pre-emergence, 1,000 g/ha, evaluated after 13 days (100=total damage; 0=no damage), read-out: Percentage damage ECHCG
Procedure, shortened: as §1

Solanum nigrum (SOLNI) [5] = experiment: as above; conditions: 312 h, pre-emergence, 1,000 g/ha, evaluated after 13 days (100=total damage; 0=no damage), read-out: Percentage damage SOLNI
Procedure, shortened: as §1

Setaria faberi (SETFA) [6] = experiment: as above; conditions: 312 h, pre-emergence, 1,000 g/ha, evaluated after 13 days (100=total damage; 0=no damage), read-out: Percentage damage SETFA
Procedure, shortened: as §1

[7] = tested on: Alopecurus myosuroides (ALOMY); experiment: Post-emergence biological efficacy, glasshouse pot test; conditions: 312 h, post-emergence, 1,000 g/ha, evaluated after 13 days (100=total damage; 0=no damage), read-out: Percentage damage caused to weed species, ALOMY
Procedure, shortened: (§2)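 Pot-grown weeds were sprayed 8 days after sowing with test compound in acetone/water (50:50) with 0.5% Tween 20 at 1000 or 250 g/ha. Glasshouse at 24/16° C day/night, 14 h light, 65% humidity. Damage scored 0-100 (100 = total damage) after 13 days.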

[8] = tested on: Amaranthus retoflexus (AMARE); experiment: as above; conditions: Amaranthus retroflexus, 312 h; post-emergence, 1,000 g/ha, evaluated after 13 days (100=total damage; 0=no damage); read-out: Percentage damage caused to weed species, AMARE
Procedure, shortened: as §2

[9] = tested on: Ipomea hederaceae (IPOHE); experiment: as above; conditions: Ipomoea hederacea, 312 h; post-emergence, 1,000 g/ha, evaluated after 13 days (100=total damage; 0=no damage); read-out: Percentage damage caused to weed species, IPOHE
Procedure, shortened: as §2

[10] = tested on: Echinochloa crus-galli (ECHCG); experiment: as above; conditions: 312 h, post-emergence, 1,000 g/ha, evaluated after 13 days (100=total damage; 0=no damage), read-out: Percentage damage caused to weed species, ECHCG
Procedure, shortened: as §2

Solanum nigrum (SOLNI) [11] = experiment: as above; conditions: 312 h, post-emergence, 1,000 g/ha, evaluated after 13 days (100=total damage; 0=no damage), read-out: Percentage damage caused to weed species, SOLNI
Procedure, shortened: as §2

Setaria faberi (SETFA) [12] = experiment: as above; conditions: 312 h, post-emergence, 1,000 g/ha, evaluated after 13 days (100=total damage; 0=no damage), read-out: Percentage damage caused to weed species, SETFA
Procedure, shortened: as §2

Compound | pest or weed control at 1000 g/ha [1] | pest or weed control at 1000 g/ha [2] | pest or weed control at 1000 g/ha [3] | pest or weed control at 1000 g/ha [4] | pest or weed control at 1000 g/ha (Solanum nigrum (SOLNI) [5]) | pest or weed control at 1000 g/ha (Setaria faberi (SETFA) [6]) | pest or weed control at 1000 g/ha [7] | pest or weed control at 1000 g/ha [8] | pest or weed control at 1000 g/ha [9] | pest or weed control at 1000 g/ha [10] | pest or weed control at 1000 g/ha (Solanum nigrum (SOLNI) [11]) | pest or weed control at 1000 g/ha (Setaria faberi (SETFA) [12])
COC(=O)c1nc(C2CC2)nc(NC2(c3ccc(Cl)cc3)CC2)c1Cl [Compound 4-5, 5-Chloro-4-[1-(4-chlorophenyl)cyclo-propylamino]-2-cyclopropyl-6-methoxycarbonyl-pyrimidine] | 0% | 40% | 40% | 0% | 0% | 0% | 20% | 100% | 70% | 0% | 80% | 40%
COC(=O)c1nc(C2CC2)nc(NC2(c3ccc(Cl)cc3Cl)CC2)c1Cl [Compound 4-6] | 0% | 40% | 10% | 0% | 20% | 0% | 20% | 100% | 60% | 20% | 40% | 0%
COC(=O)c1nc(C2CC2)nc(NC2(c3ccccn3)CC2)c1Cl [Compound 4-10, 5-Chloro-2-cyclopropyl-6-methoxycarbonyl-4-(1-pyrid-2-ylcyclo-propylamino)-pyrimidine] | 0% | 30% | 80% | 0% | 20% | 0% | 20% | 60% | 50% | 0% | 40% | 0%
COC(=O)c1nc(C2CC2)nc(NC2(c3cccc(C)n3)CC2)c1Cl [Compound 4-13, 5-Chloro-2-cyclopropyl-6-methoxycarbonyl-4-[1-(6-methylpyrid-2-yl)-cyclopropyl-amino]-pyrimidine] | 0% | 20% | 50% | 0% | 20% | 0% | 20% | 60% | 60% | 0% | 50% | 0%
COC(=O)c1nc(C2CC2)nc(NC2(COc3ccc(Cl)cc3)CC2)c1Cl [Compound 4-16, 5-Chloro-4-[1-(4-chlorophenoxy-methyl)cyclo-propylamino]-2-cyclopropyl-6-methoxycarbonyl-pyrimidine] | 0% | 30% | 10% | 0% | 10% | 0% | 20% | 100% | 100% | 40% | 90% | 60%
COC(=O)c1nc(C2CC2)nc(NC2(CCc3ccccc3)CC2)c1Cl [Compound 4-17, 5-Chloro-2-cyclopropyl-6-methoxycarbonyl-4-[1-(2-phenylethyl)-cyclopropylamino]-pyrimidine] | 10% | 50% | 70% | 20% | 10% | 0% | 20% | 100% | 60% | 30% | 70% | 60%
COC(=O)c1nc(C2CC2)nc(NC2(/C=C/c3ccc(F)cc3)CC2)c1Cl [Compound 4-20, 5-Chloro-2-cyclopropyl-4-{1-[2-(4-fluorophenyl)-ethenyl]-cyclo-propylamino}-6-methoxycarbonyl-pyrimidine] | 0% | 50% | 50% | 0% | 20% | 0% | 20% | 100% | 100% | 50% | 80% | 70%
COC(=O)c1nc(C2CC2)nc(NC2(/C=C/c3ccc(Cl)cc3)CC2)c1Cl [Compound 4-21, 5-Chloro-4-{1-[2-(4-chlorophenyl)-ethenyl]-cyclopropylamino}-2-cyclopropyl-6-methoxycarbonyl-pyrimidine] | 0% | 20% | 70% | 0% | 50% | 0% | 20% | 100% | 80% | 50% | 80% | 60%
COC(=O)c1nc(C2CC2)nc(NC2(/C=C/c3cc(C(F)(F)F)cc(C(F)(F)F)c3)CC2)c1Cl [Compound 4-22, 4-{1-[2-(3,5-Bis-trifluoromethylphen-yl)-ethenyl]-cyclopropylamino}-5-chloro-2-cyclopropyl-6-methoxycarbonyl-pyrimidine] | 20% | 70% | 80% | 20% | 20% | 10% | 30% | 100% | 100% | 40% | 100% | 80%
COC(=O)c1nc(C2CC2)nc(NC2(/C=C/c3cccs3)CC2)c1Cl [Compound 4-23, 5-Chloro-2-cyclopropyl-6-methoxycarbonyl-4-[1-(2-thiophen-2-ylethenyl)-cyclopropylamino]-pyrimidine] | 10% | 70% | 70% | 0% | 60% | 0% | 20% | 100% | 100% | 60% | 80% | 70%
COC(=O)c1nc(C2CC2)nc(NC2(/C=C/c3ccccc3Cl)CC2)c1Cl [Compound 4-24, 5-Chloro-4-{1-[2-(2-chlorophenyl)-ethenyl]-cyclopropylamino}-2-cyclopropyl-6-methoxycarbonyl-pyrimidine] | 10% | 100% | 40% | 0% | 90% | 0% | 10% | 100% | 100% | 30% | 80% | 60%
